Test results as given in patent EP0006772A1, “Thieno and furopyridone derivatives, process for their preparation and medicinal preparations containing them” (OMNIUM FINANCIER AQUITAINE POUR L'HYGIENE ET LA SANTE - …, priority 1978, dated 1980).
Like-named read-outs stand apart in the source and are kept apart here.

Legend:
[1] = tested on: agrégation plaquettaire au collagène; test: Collagen-induced platelet aggregation in plasma of orally treated rats (ex vivo); parameters: species or system rats de souche Wistar; details: Rattus norvegicus, 100 mg/kg oral, 3 hours after treatment, versus control, collagen (bovine tendon extract), read-out: Pourcentage d'inhibition Collagène
Method: (§1) Chez des rats de souche Wistar, on effectue un prélèvement sanguin dans la veine jugulaire. A partir de ce sang citraté et après centrifugation, on reconstitue un plasma contenant 600 000 ± 20 000 plaquettes par mm^3, qui servira dans toutes les mesures d'agrégation.
(§2) On place 0,4 ml de plasma dans un tube siliconé pourvu d'une barre aimantée elle-même siliconée. Le tube est introduit dans un agrégomètre couplé à un appareil permettant d'enregistrer les variations de densité optique. Lorsque la transmission de la lumière a atteint une valeur stable, on introduit dans le tube 0,5 ml d'une solution contenant 10 µM d'A.D.P. (Adénosine-Di Phosphate).
(§3) L'agrégation des plaquettes provoque alors une augmentation de la transmission lumineuse suivie d'une diminution consécutive à la phase de désagrégation.
(§4) La variation maximale de densité optique ainsi déterminée caractérise l'intensité de l'agrégation.
La solution d'A.D.P. est remplacée par une solution de collagène (extrait de tendons bovins).
(§5) Différents lots de 20 rats sont uiilisés, chaque lot recevant un dérivé à tester par la vcie orale, à la dose de 100 mg/kg de poids corporel. Les résultats obtenus au cours de ces 2 essais sont rapportés dans le Tableau I suivant qui indique le pourcentage d'inhibition de l'agrégation plaquettaire obtenu, par rapport au témoin, 3 heures après le traitement par le médicament de l'invention, dans le test de l'A.D.P. et au collagène.

[2] = tested on: oedème généralisé à l'ovalbumine; test: Ovalbumin-induced generalised oedema; assay type: in vivo; details: po, rat, 100 mg/kg per os 1 h before and together with ovalbumin
Method: Une injection intrapéritonéale simultanée de 1 ml d'ovalbumine et de 0,5 ml d'une solution aqueuse de bleu Evans à 1 % est effectuée sur le rat. D'autre part, on administre per os aux animaux du lot traité 100 mg/kg du dérivé à tester 1 heure avant et en même temps que l'ovalbumine. L'intensité du phénomène ainsi provoqué est notée par un chiffre allant de 1 à 5 suivant la progression du syndrome inflammatoire. On détermine ainsi la moyenne de l'intensité oedémateuse et le pourcentage de diminution de la réaction oedémateuse par rapport au témoin, en fonction du temps.
Les pourcentages d'activité anti-inflammatoire obtenus à la 2ème heure et 3ème heure après l'injection d'ovalbumine sont consignés dans le Tableau III suivant.

[3] = tested on: agrégation plaquettaire à l'A.D.P.; test: ADP-induced platelet aggregation in plasma of orally treated rats (ex vivo); parameters: species or system rats de souche Wistar; details: Rattus norvegicus, 100 mg/kg oral, 3 hours after treatment, versus control, 10 µM A.D.P., read-out: Pourcentage d'inhibition A.D.P.
Method: as §1, §2, §3, §4, §5

[4] = tested on: oedème localisé provoqué par la carragénine; test: Carrageenan-induced localised paw oedema; assay type: in vivo; details: rat, 100 mg/kg oral (1 h before, at injection, 1 h and 2.5 h after)
Method: Une solution de carragénine (0,1 ml) à 1 % est injectée dans les fléchisseurs métatarsiens de la patte postérieure droite du rat au temps O. Les animaux du lot traité reçoivent en outre, par la voie orale, 100 mg par kg du dérivé à tester respectivement 1 heure avant, en même temps que l'injection de l'agent phlogogène, puis 1 heure et 2 heures et demi après. Les mesures qui sont effectuées à l'aide du micromètre de ROCH aux temps 0, 1 heure, 2 heures, 3 heures et 5 heures après l'administration de la carragénine permettent de déterminer, en fonction du temps, le pourcentage d'activité anti-inflammatoire par comparaison avec le lot témoin.

[5] = 2 h after ovalbumin injection, read-out: Pourcentage d'activité anti-inflammatoire 2ème heure
[6] = 3 h after ovalbumin injection, read-out: Pourcentage d'activité anti-inflammatoire 3ème heure
[7] = 1 h after carrageenan, read-out: pourcentage d'activité anti-inflammatoire Ière heure
[8] = 2 h after carrageenan, read-out: pourcentage d'activité anti-inflammatoire 2ème heure
[9] = 3 h after carrageenan, read-out: pourcentage d'activité anti-inflammatoire 3ème heure
[10] = 5 h after carrageenan, read-out: pourcentage d'activité anti-inflammatoire 5ème heure

Row | Compound | inhibition at 100 mg/kg [1] | inhibition in vivo at 100 mg/kg [2, 5] | inhibition in vivo at 100 mg/kg [2, 6] | inhibition at 100 mg/kg [3] | inhibition in vivo at 100 mg/kg [4, 7] | inhibition in vivo at 100 mg/kg [4, 8] | inhibition in vivo at 100 mg/kg [4, 9] | inhibition in vivo at 100 mg/kg [4, 10]
1 | O=c1[nH]c(-c2ccccc2)cc2sccc12 [dérivé 1, Phényl-6 thiéno(3,2-c)pyridone-4] | 91.4% | 45% | 52% | 62% | 35% | 39% | 45% | 49%
2 | O=c1[nH]c(-c2ccc(F)cc2)cc2sccc12 [dérivé 2, p-fluorophényl-6 thiéno(3,2-c)pyridone-4] | 91.7% | 48% | 54% | 60.5% | 37% | 41% | 46% | 50%
3 | O=c1[nH]c(-c2ccccc2Cl)cc2sccc12 [dérivé 3, o-chlorophényl-6 thiéno(3,2-c)pyridone-4] | 92% | 48% | 55% | 58.8% | 37% | 40% | 45% | 48%
4 | O=c1[nH]c(-c2ccc(Cl)cc2)cc2sccc12 [dérivé 4, p-chlorophényl-6 thiéno(3,2-c)pyridone-4] | 90.5% | 47% | 53% | 61.2% | 41% | 44% | 48% | 52%
5 | Cc1ccc(-c2cc3sccc3c(=O)[nH]2)cc1 [dérivé 5, p-tolyl-6 thiéno(3,2-c)pyridone-4] | 91.4% | 50% | 55% | 62.6% | 38% | 41% | 46% | 51%
6 | COc1ccc(-c2cc3sccc3c(=O)[nH]2)cc1 [dérivé 6, p-méthoxyphényl-6 thiéno(3,2-c)pyridone-4] | 91.7% | 52% | 58% | 62.2% | 40% | 43% | 49% | 52%
7 | COc1ccc(-c2cc3sccc3c(=O)[nH]2)cc1OC [dérivé 7, (diméthoxy-3,4 phényl)-6 thiéno(3,2-c)pyrido-ne-4] | 90.6% | 48% | 55% | 61.7% | 40% | 44% | 48% | 51%
8 | COc1cc(-c2cc3sccc3c(=O)[nH]2)cc(OC)c1OC [dérivé 8, (triméthoxy-3,4,5 phényl)-6 thiéno(3,2-c)py-ridone-4] | 92.2% | 46% | 53% | 60.4% | 36% | 39% | 45% | 59%
9 | O=c1[nH]c(-c2ccccc2[N+](=O)[O-])cc2sccc12 [dérivé 9, o-nitrophényl-6 thiéno(3,2-c)pyridone-4] | 90.8% | 46% | 52% | 59.1% | 38% | 41% | 46% | 50%
10 | O=c1[nH]c(-c2ccc([N+](=O)[O-])cc2)cc2sccc12 [dérivé 10, p-nitrophényl-6 thiéno(3,2-c)pyridone-4] | 90.2% | 49% | 55% | 60.4% | 41% | 45% | 51% | 53%
11 | O=c1[nH]c(-c2cccc(C(F)(F)F)c2)cc2sccc12 [dérivé 11, m-trifluorométhylphényl-6 thiéno(3,2-c)pyri-done-4] | 90.7% | 51% | 57% | 60.1% | 40% | 44% | 49% | 52%
12 | O=c1[nH]c(-c2ccccc2)cc2sc(Cl)cc12 [dérivé 12, Chloro-2 phényl-6 thiéno(3,2-c)pyridone-4] | 91.4% | 45% | 52% | 60.6% | 36% | 40% | 46% | 50%
13 | Cc1cc2c(=O)[nH]c(-c3ccccc3)cc2s1 [dérivé 13, Méthyl-2 phényl-6 thiéno(3,2-c)pyridone-4] | 90.5% | 46% | 53% | 61.5% | 38% | 42% | 47% | 50%
14 | O=c1[nH]c(-c2cccnc2)cc2sccc12 [dérivé 14, (Pyridyl-3)-6 thiéno(3,2-c)pyridone-4] | 91.2% | 48% | 54% | 60.8% | 38% | 41% | 47% | 50%
15 | O=c1[nH]c(-c2ccccc2)cc2ccsc12 [dérivé 15, Phényl-5 thiéno(2,3-c)pyridone-7] | 90.8% | 47% | 53% | 62.5% | 39% | 43% | 48% | 51%
16 | O=c1[nH]c(-c2ccccc2Cl)cc2ccsc12 [dérivé 16, o-chlorophényl-5 thiéno(2,3-c)pyridone-7] | 90.2% | 46% | 54% | 60.1% | 37% | 41% | 47% | 50%
17 | O=c1[nH]c(-c2ccccc2)cc2occc12 [dérivé 17, Phényl-6 furo(3,2-c)pyridone-4] | 90.4% | 45% | 51% | 59.8% | 41% | 44% | 49% | 51%
